# Data taken from paper PMC10067956, “Pyrazole derivatives of pyridine and naphthyridine as proapoptotic agents in cervical and breast cancer cells” (Scientific Reports, 2023).
# Read-outs that look alike come from different tables or passages of the source.
# How the values were obtained:
# HeLa cells [1] = assay: Oxidative stress (H2DCF-DA staining), HeLa; type: cell-based; conditions: IC50 and 2 × IC50
# Experimental: (§1) After washing with sterile PBS, cells were fixed and 10 µL (0.01 mg/mL) of H2DCF-DA dye was added on microscopic slides. After an incubation of 10 min at room temperature in the dark, fluorescence photomicrographs were obtained as previously reported.
# caspase-9 [2] = assay: Activated caspase-9 in HeLa cells; type: cell-based; conditions: versus control
# Excerpt: (§2) Results were represented as fold increase in activated caspase-9 and caspase-3/7 as compared to control as previously reported.
# HeLa cells [3] = assay: MTT cell viability assay, HeLa; type: cell-based; conditions: 24 h; for IC50: read-out: IC50 (µM) ± SEM, HeLa Cell Line; for inhibition at 100 µM: read-out: %Inhibition at 100 µM, HeLa cell line
# Experimental: (§3) The anti-proliferative activity of the studied compounds was determined against breast (MCF-7) and cervical (HeLa) cancer cells by the MTT cell viability assay as described earlier[44],[45]. BHK-21 cells were used as non-cancerous cells to study the effect of these compounds on normal cells. Briefly, 1 × 10^4 cells/well were seeded in 96-well microtiter plate and placed in an incubator (Heracell™ VIOS 160i, Thermo-Fisher Scientific) set for 5% CO2 at 37 °C. The stock solutions of compounds were prepared at 10 mM concentration in DMSO. Initial working solutions were prepared in cell culture medium at 1 mM concentration. […] After 24 h, medium in each well was aspirated and cells were treated for 4 h with serum free medium containing 0.2 mg/mL MTT reagent. The solubilizing reagent (10% acidified sodium dodecyl sulfate in propanol in a 1:1 ratio) was added to solubilize formazan crystals. Plates were kept at 37 °C for 30 min and then placed on a gyratory shaker for few min for complete solubilization of formazan crystals. The optical density was measured at 570 nm by microplate reader and IC50 values were calculated from three independent experiments as previously reported.
# HeLa cells [4] = assay: Alkaline comet assay; type: cell-based
# Experimental: Comet assay is a sensitive method to determine DNA damage which was performed after some modifications in a published protocol. […] The cervical cancer (HeLa) cells were treated with IC50 value of potent compound 5j for 24 h. Cells were harvested, collected and centrifuged to obtain a pellet. Pelleted cells were re-suspended in media. Untreated cells were used as control cells. For the positive control, 2 × 10^4 cells were treated with 20 µM of freshly prepared hydrogen peroxide for 30 min. Slides were prepared by coating with 1% normal melting point agarose (NMPA) on one side and then dried. Samples (2 × 10^4 cells/sample) were re-suspended in 1 mL of PBS. In a tube, 0.4 mL cell suspension was mixed with 1.2 mL of 0.9% low melting point agarose (LMPA) and mixed thoroughly by pipetting. A cell suspension of 65 µL was laid on coated slide and evenly distributed by placing a coverslip over it. Slides were placed at − 20 °C for 10 min. Then the slides were placed at 4 °C in the dark in a lysis buffer of 100 mM EDTA, 10 mM Trizma base, 2.5 M sodium chloride, 10% DMSO and 1% Triton X-100 in distilled water with a pH of 10. After an overnight incubation, slides were washed with chilled distilled water. These slides were then placed in electrophoresis chamber (Wealtec, USA) having chilled (4 °C) alkali unwinding solution (300 mM sodium hydroxide and 1 mM EDTA in distilled water). Electrophoresis was carried out at an adjusted voltage (between 0.7 and 1.0 V/cm) for 35 min in an electrophoresis tank. Slides were then immersed in neutralization solution (0.4 M Trizma base in 800 mL water, pH 7.5) for 10 min in dark. Propidium iodide (20 µL of 0.01 mg/mL) was used as fluorescent dye to stain DNA. Slides were placed in dark at room temperature. After 10 min, images were captured using a fluorescence microscope (Nikon ECLIPSE Ni–U, Japan) at an excitation/emission wavelength of 493/632 nm. Microscopic images were analyzed using ImageJ (ij152-win-java8, National Institutes of Health, Bethesda, USA) and OpenComet (OpenComet_imagej_v1.3.1, USA) where the DNA content in the head and tail of the comets were automatically measured by the software. Results of three independent experiments were expressed as tail length ([…]), %DNA in comet tail and comet tail moment.
# caspase-3/7 = assay: Activated caspase-3/7 in HeLa cells; type: cell-based; conditions: versus control
# Excerpt: as §2
# BHK-21 cells = assay: MTT cell viability assay, non-cancerous BHK-21; type: cell-based, Baby Hamster; conditions: Mesocricetus auratus, 24 h, read-out: IC50 (µM) ± SEM, BHK-21 cell line
# Experimental: as §3
# HeLa cells [5] = assay: Cell cycle analysis by flow cytometry; type: cell-based; conditions: IC50 and 2 × IC50, PI staining
# Experimental: Briefly, HeLa cells (2 × 10^5 cells/mL) were grown and treated with IC50 and 2 × IC50 values of potent compound 5j. Cells were harvested and washed three times with PBS to remove traces of cell culture medium. Cells were fixed in 70% ethanol for 24 h at − 20 °C. Pelletized cells were then re-suspended in 1 mL of a solution containing PI (20 µg/mL), RNase A (50 µg/mL) and 0.1% (v/v) Triton X-100. Samples were kept in the dark for 30 min at room temperature and analyzed within an hour as reported earlier.
# HeLa cells [6] = assay: Fluorescence microscopy of apoptosis (PI, DAPI), HeLa; type: cell-based; conditions: IC50 and 2 × IC50, 24 h
# Experimental: (§4) Morphological changes in compound treated cancer cells were identified using propidium iodide (PI) and 4′,6-diamidino-2-phenylindole (DAPI) staining with observing under a fluorescence microscope (Nikon ECLIPSE Ni–U, Japan). […] After 24 h, media was aspirated, cells were washed with sterile phosphate buffered saline (PBS) and fixed by using 4% formalin and 0.1% Triton X–100 as adherent cells fixation solution. Further, 10 µL (0.01 mg/mL) of PI or DAPI solution was added on slides and kept for 10 min in dark. Fluorescence photomicrographs were captured as previously reported.
# HeLa cells [7] = assay: LDH cytotoxicity assay, HeLa; type: cell-based; conditions: IC50 and 2 × IC50
# Experimental: (§5) Briefly, 1 × 10^4 cells/well were seeded in a flat bottom 96 well cell culture plate and kept for overnight incubation. Cells were treated with potent compounds 5j and 5k at the IC50 and 2 × IC50 values. The plate was centrifuged at 1500 rpm for 3 min and the supernatant (50 µL) transferred to a new sterile 96-well plate. After addition of substrate mix (50 µL), plate was placed at room temperature for 30 min. The absorbance was measured at 490 nm and 680 nm using microplate reader (FLUOstar Omega, Ortenberg, Germany). Cytotoxicity was measured as described earlier.
# HeLa cells [8] = assay: Mitochondrial membrane potential (JC-1), HeLa; type: cell-based; conditions: IC50 and 2 × IC50, 24 h
# Experimental: (§6) Mitochondrial membrane potential was determined by a fluorimetric method using fluorescent dye 5′,5′,6′,6′-tetrachloro-1′,1′,3′,3′-[…] (JC-1). Briefly, 1 × 10^5 cells were grown and treated with IC50 and 2 × IC50 values of compounds 5j and 5k for 24 h. Cells were harvested, pelletized and treated with 0.25 µM of fluorescent dye JC-1. Each sample was transferred to a flat-bottomed black 96-well plate, which was kept in the dark for 20 min. Fluorescence emission was measured by a fluorescent microplate reader (FLUOstar Omega BMG Labtech, Germany) at 590 nm and 520 nm for j-aggregates and j-monomers. Results were measured as ratio of red/green fluorescence as previously reported.
# MCF-7 cells [9] = assay: MTT cell viability assay, MCF-7; type: cell-based; conditions: Homo sapiens; for inhibition at 100 µM: MCF7, 100 µM, 24 h, read-out: %Inhibition at 100 µM, MCF-7 cell line
# Experimental: as §3
# herring sperm DNA = assay: DNA binding studies (UV absorption); conditions: 200 µM compound; 0 to 396 µM DNA; hypochromicity, no red or blue shift
# Experimental: A stock solution of 5 mg of DNA was prepared in 10 mL of distilled water and the purity of the DNA (A260/A280) was in the range of 1.6 to 1.9. Compound 5j was tested at a final concentration of 200 µM with varying end concentrations (0 to 396 µM) of DNA. The plate was placed at room temperature for 30 min and the UV absorption spectrum was recorded by microplate reader (FLUOstar Omega BMG Labtech, Ortenberg, Germany).
# MCF-7 cells [10] = assay: LDH cytotoxicity assay, MCF-7; type: cell-based; conditions: IC50 and 2 × IC50
# Experimental: as §5
# caspase-9 [11] = assay: Activated caspase-9 in MCF-7 cells; type: cell-based; conditions: versus control
# Excerpt: as §2
# MCF-7 cells [12] = assay: Mitochondrial membrane potential (JC-1), MCF-7; type: cell-based; conditions: IC50 and 2 × IC50, 24 h
# Experimental: as §6
# MCF-7 cells [13] = assay: Fluorescence microscopy of apoptosis (PI, DAPI), MCF-7; type: cell-based; conditions: IC50 and 2 × IC50, 24 h
# Experimental: as §4
# MCF-7 cells [14] = assay: Oxidative stress (H2DCF-DA staining), MCF-7; type: cell-based; conditions: IC50 and 2 × IC50
# Experimental: as §1
# caspase-7 = assay: Activated caspase-7 in MCF-7 cells; type: cell-based; conditions: versus control
# Excerpt: as §2
# [15] = 5j 6.4 µM 24 h, H2O2 20 µM 30 min (positive control)
smiles,measurement,setting,value
Cc1[nH]nc2nc(N)c3c(N)nc4ccc(F)cc4c3c12 [5j],"ROS production, H2DCF-DA staining",HeLa cells [1],ROS generation
same,fold increase in activated caspase-9,"caspase-9 [2]; at 2 × IC50, 18 h",2.2 folds
same,fold increase in activated caspase-9,"caspase-9 [2]; at IC50, 18 h",1.4 folds
same,IC50,HeLa cells [3],6.43 ± 0.45 µM
same,inhibition at 100 µM,HeLa cells [3]; Homo sapiens,94.8%
same,IC50,HeLa cells [3]; Homo sapiens,6.4 ± 0.45 µM
same,DNA damage in comet assay,HeLa cells [4]; 6.4 µM,"DNA damage in treated cells, comparable to positive control"
same,%DNA in tail ± SD,HeLa cells [4]; 5j 6.4 µM 24 h,41.02 ± 7.61%
same,Tail length ± SD,HeLa cells [4]; [15],43 ± 10.3 µm
same,Tail moment ± SD,HeLa cells [4]; [15],23.22 ± 1.61
same,fold increase in activated caspase-3/7,"caspase-3/7; at 2 × IC50, 18 h",4.8 folds
same,fold increase in activated caspase-3/7,"caspase-3/7; at IC50, 18 h",about 4 folds
same,IC50,BHK-21 cells,27.5 ± 1.32 µM
same,cell cycle arrest,HeLa cells [5],G0/G1 arrest
same,"morphological features of apoptosis, PI and DAPI staining",HeLa cells [6],"Cell detachment, shrinkage of cells and condensation of nuclear material was observed"
same,leaked LDH (cytotoxic effect),HeLa cells [7],dose dependent increase in leaked LDH
same,"mitochondrial membrane potential, ratio of red/green fluorescence (JC-1)",HeLa cells [8],decrease in red/green ratio
same,inhibition at 100 µM,MCF-7 cells [9],47.8%
same,mode of interaction with DNA (absorption spectra),herring sperm DNA,non-covalently bound to DNA
Cc1[nH]nc2nc(N)c3c(N)nc4ccc(Cl)cc4c3c12 [5k],leaked LDH (cytotoxic effect),MCF-7 cells [10],dose dependent increase in leaked LDH
same,fold increase in activated caspase-9,"caspase-9 [11]; at 2 × IC50, 18 h",1.4 folds
same,fold increase in activated caspase-9,"caspase-9 [11]; at IC50, 18 h",1.1 folds
same,inhibition at 100 µM,HeLa cells [3]; Homo sapiens,96.4%
same,IC50,HeLa cells [3]; Homo sapiens,7.25 ± 0.12 µM
same,"mitochondrial membrane potential, ratio of red/green fluorescence (JC-1)",MCF-7 cells [12],decrease in red/green ratio
same,"morphological features of apoptosis, PI and DAPI staining",MCF-7 cells [13],"Cell detachment, shrinkage of cells and condensation of nuclear material was observed"
same,IC50,BHK-21 cells,8.21 ± 0.57 µM
same,"ROS production, H2DCF-DA staining",MCF-7 cells [14],ROS generation
same,fold increase in activated caspase-7,"caspase-7; at 2 × IC50, 18 h",1.8 fold
same,fold increase in activated caspase-7,"caspase-7; at IC50, 18 h",1.4 fold
same,inhibition at 100 µM,MCF-7 cells [9],69.5%
same,IC50,"MCF-7 cells [9]; MCF7, 24 h, read-out: IC50 (µM) ± SEM, MCF-7 cell line",2.03 ± 0.23 µM
